Assay: Solubility in toluene
[1] = 20 mg mixed with toluene (1 mL)
[2] = organic solvent or mixture, thermodynamic from solid

Solubility [1]	SMILES	Solubility [2] [mg/mL]
A (Completely dissolved.)	CCCCCCCCCCCCc1cc2cc3ccc4cc5cc(CCCCCCCCCCCC)sc5cc4c3cc2s1 [Compound 5]	–
A (Completely dissolved.)	CCCCCCCCc1ccc(-c2cc3cc4ccc5cc6cc(-c7ccc(CCCCCCCC)cc7)sc6cc5c4cc3s2)cc1 [Compound 11]	–
A (Completely dissolved.)	CCCCCCCCc1ccc(-c2cc3cc4ccc5cc6cc(-c7ccc(CCCCCCCC)s7)sc6cc5c4cc3s2)s1 [Compound 16]	–
–	Cc1c(C)n(-c2ccccc2)c2c1ccc1c3ccc4c(C)c(C)n(-c5ccccc5)c4c3ccc12 [compound 1, reference compound]	< 20
–	c1ccc(-n2c3ccccc3c3cc4ccc5cc6c7ccccc7n(-c7ccccc7)c6cc5c4cc32)cc1 [compound 2, reference compound]	< 20

SMILES	Solubility [1]	Solubility [2] [mg/mL]
CCCCCCCCc1cc2cc3ccc4cc5cc(CCCCCCCC)n(C)c5cc4c3cc2n1C [Compound 3]	A (Completely dissolved.)	–
CCCCCCCCc1csc(-c2cc3cc4ccc5cc6cc(-c7cc(CCCCCCCC)cs7)sc6cc5c4cc3s2)c1 [Compound 24]	A (Completely dissolved.)	–
